The text below walks through data of patent US20090258836A1, “EFFECTIVE DELIVERY OF CROSS-SPECIES A3 ADENOSINE-RECEPTOR ANTAGONISTS TO REDUCE INTRAOCULAR PRESSURE” (The Trustees of The University of Pennsylvania, priority 2006, published 2009).

Test [1] has as its system HCE (human ciliary epithelial) cell line, NPE cells. The test can be described thus: Cell volume in isosmotic solution (isosmotic shrinkage), Coulter Counter. Type of test: cell-based. As to the method: Cell Culture The HCE (human ciliary epithelial) cell line (Carre et al., supra, 1997) is an immortalized NPE cell line obtained from primary cultures of adult human epithelium. […] Eye Res. 57:3057-3063 (1993); Yantorno et al., Exp. Eye Res. 49:423-437 (1989)). […] Cells were passaged every 6-7 days and were studied 8-13 days after passage, after reaching confluence. An immortalized PE-cell line from a primary culture of bovine pigmented ciliary epithelium were also grown under matching conditions. Measurement of Cell Volume in Isosmotic Solution: The volume of PE and NPE cells was measured, since the movement of fluid underlies a change in PE and NPE cell volume, respectively. This is also thought to be the same as the movement of fluid which underlines the secretion of aqueous humor (FIG. 1). […] Parallel aliquots of cells were studied on the same day. One aliquot usually served as a control, and the others were exposed to different experimental conditions at the time of suspension. The same amount of solvent vehicle (dimethylformamide, DMSO or ethanol) was always added to the control and experimental aliquots. […] Cell volumes of isosmotic suspensions were measured with a Coulter Counter (model ZBI-Channelyzer II), using a 100 μm aperture (Civan et al., supra, 1994). As previously described (Wax et al., supra, 1993), the cell volume (vC) of the suspension was taken as the peak of the distribution function. Cell shrinkage was fit as a function of time (t) to a monoexpenential function: […]^0^)/τ] {1) where v∞ is the steady-state cell volume, v0 is the cell volume at the first point (t0) of the time course to be fit, and τ is the time constant of the shrinkage. For purposes of data reduction, the data were normalized to the first time point, taken to be 100% isotonic volume. Fits were obtained by nonlinear least-squares regression analysis, permitting both v∞ and τ to be variables. […] Med. Chem. 37:636-646 (1994; Jacobson et al., supra, 1995; Jacobson et al., FEBS Lett. 336:57-60 (1993)).

Test [2] relates to intact rabbit ciliary epithelium. As to the kind of experiment: Short-circuit current across intact rabbit ciliary epithelium (iris-ciliary body). The settings on record: 30 μM IB-MECA, 5 mM Ba2+, solvent-corrected. As to the method: As an initial step in data analysis, 20-min period of baseline current just before addition of any agent was fit by linear least-squares analysis. The line generated by that analysis was extrapolated to a point 45 min beyond introduction of that agent. Each current response was subtracted from its respective extrapolated baseline to yield a common initial baseline approximating constant zero current. All recordings were placed in register relative to time of agent introduction (time 0). Records of control (solvent), IB-MECA with solvent, and B-MECA corrected for solvent were separately averaged. […]
Transepithelial Measurements: In animal experiments, preferably rabbits, after anesthetization and sacrifice (Carre et al., J. Membr. Biol. 146:293-305 (1995), the iris-ciliary body (1-CB) was enucleated and isolated as described by Carre et al., 1995. In one experiment, the pupil and central iris were occluded with a Lucite disc, and the iris-ciliary body was mounted between the two halves of a Lucite chamber. The annulus of exposed tissue provided a projected surface area of 0.93 cm^2. Preparations were continuously bubbled with 95%O2-5% CO2 for maintenance of pH 7.4 in a Ringer's solution comprising (in mM): 110.0 NaCl, 10.0 HEPES (acid), 5.0 HEPES (Na^+), 30.0 NaHCO3, 2.5 CaCl2, 1.2 MgCl2, 5.9 KCl, and 10.0 glucose, at an osmolality of 305 mOsm. […]

Test [3] concerns mouse IOP. As to the kind of experiment: Mouse IOP monitored with SNMS, protocols of Yang et al. 2005. Type of test: in vivo. As to the method:
Pharmacol. 65:1675-1684 (2003)), is effective both in blocking adenosine-triggered shrinkage of cultured human NPE cells and in lowering IOP of mice (Yang et al., supra, 2005). MRS-1292 was tested on the mouse for two reasons. Transgenic mice provide a convenient opportunity for studying the molecular physiology and pharmacology in the living animal ([…] al., supra, 2003). Second, measurement of IOP permitted us to assess the effects of MRS-1292 on the target parameter. […] Therefore, to directly assess the effect of MRS-1292 in vivo in the mouse, IOP was monitored before and after drug application. IOP was monitored with the Servo-Null-Micropipette System (SNMS). The test protocols are described in detail by Yang et al. supra, 2005, herein incorporated by reference. […] In comparison, addition of the same volume of saline at the same osmolality produced no significant change in IOP (-0.3±1.2 mmHg, n=6, p>0.8) 14 min later. […] To estimate an approximate range, “penetrance” was defined by Yang et al. as the ratio of the published Ki value at receptors in vitro to the minimally effective droplet concentration, for a number of adenosine agonists and antagonists. Thus, penetrance ranges from 1:100 to 1:1000 for purinergic drugs that have been tested in the mouse, and it is not very different from the drug penetrance of 1:100 for agents applied topically to rabbits and primates. This rule of thumb also applies to acylguanidine blockers and bumetanide, whose topical effects have also been studied in the mouse eye. Thus, the approximately 1:1000 penetrance that Yang et al. reported in the 2003 citation for MRS 1292 in the present experiments is consistent with past studies

The test system of test [4] is mouse IOP. The test can be described thus: Mouse IOP after topical application, non-invasive pneumotonometry. It counts as in vivo, Black Swiss mice. As to the method: (§1) The test animals were black Swiss outbred mice of mixed sex, 7-9 weeks old and 25-30 g in weight, obtained from Taconic Inc. (Germantown, N.Y.), and maintained under 12:12-h light/dark illumination cycle and allowed unrestricted access to food and water. Mice were anesthetized with intraperitoneal ketamine ([…]) supplemented by topical proparacaine HCl 0.5% (Allergan, Bausch & Lomb) for the IOP measurements. IOP was measured invasively (SNMS) and non-invasively by pneumotonometry in separate animals.
By comparison, IOP was measured non-invasively by pneumotonometry (OBT) (Avila et al., supra, 2005). As previously described, the commercially available tip of the ocular blood tomography (OBT) pneumotonometer (Blood Flow Analyzer [BFA] probe tip; Paradigm Medical Industries Inc.) was fit to a custom-built mount. Air flow from a constant pressure source was passed through the mount to reach a diaphragm forming the end of the BFA tip. The flow of air displaces the diaphragm outward, permitting escape of the air through holes in the wall of the probe tip into the atmosphere. Pressure was monitored with a transducer connected through a T-connection to the base of the BFA tip. The probe assembly was advanced to the cornea with a three-axis micromanipulator. The probe tip was advanced sufficiently to make contact with the tear film, as was indicated by a shift in the baseline output reading. In a refined method, the tip was withdrawn until the […] was visually displaced from the tear film. The output was then adjusted to zero before advancing the tip again. Contact with the cornea depresses the diaphragm of the BFA tip, occluding access of the air flow to the escape holes and raising the pressure at the base of the tip.
This approach was simplified to expedite identification of the endpoint, and the probe was subsequently advanced in about 10 standardized steps of approximately […] at intervals of about 10 seconds to identify the inflection region (Wang et al., supra, 2006). […] The pneumotonometric estimates of IOP were previously found to agree with manometric measurements in cannulated preparations and with estimates obtained by the servo-null technique (Avila et al., supra, 2005). Having established the baseline value of IOP, the position along the axis of advance of the micromanipulator was noted, and the probe was retracted from contact with the cornea. Subsequent measurements of IOP at later time points were obtained by advancing the probe tip to the same position, with the placement of the mouse maintained stereotactically. The measurements were conducted at 10-min intervals to avoid potential artifacts associated with prolonged pressure on the cornea.
(§2) Ketamine HCl was purchased from Phoenix Pharmaceutical Inc. (St. Joseph, Mo.). Other drugs were obtained from Sigma Chemical (St. Louis, Mo.). Drugs were applied topically with an Eppendorf pipette. […] The final droplet solution contained the drugs at the stated concentrations together with <2% DMSO and 0.0005% benzalkonium chloride at an osmolality of 295-300 mOsm. DMSO was omitted, altogether, from droplets containing the hydrophilic compounds adenosine, carbachol and carboxyfluorescein.
(§3) Effects on invasively-measured IOP were measured 10 min after topical application because after this time, the continued presence of the micropipette can be associated with a downward drift of the IOP, even under control conditions. In contrast, smaller droplets ([…]) were applied to the eye more frequently (three times instead of once) with the non-invasive technique, in order to forestall drying of the eye associated with the airflow from the pneumotonometer. With the non-invasive protocol, the IOP was stable for 30 min under control conditions.
In Table 1, an endpoint of 10 minutes was used for the invasive measurements in light of the above-discussed downward drift of the IOP, even under control conditions. […]

The test system of test [5] is mouse IOP. As to the kind of experiment: Mouse IOP after topical application, invasive servo-null micropipette system (SNMS). Type of test: in vivo, Black Swiss mice. As to the method:
as §1
By the SNMS approach (Avila et al., supra, 2001), the exploring micropipette, of […] outer diameter, was filled with a highly conducting solution and advanced across the cornea into the anterior chamber. A refined technique by Wang et al., Invest. Opthalmol. Vis. Sci. (serial online) (Aug. 31, 2006) available at www.iovs.org/egi/letters/46/9/3274#422, enhanced stability and reduce the background noise of the records, permitting fabrication of micropipettes whose resistance is 0.1-0.3 MΩ, rather than the 0.25-0.4 MΩ used initially. The filling solution was reduced from 3M KCl to 2M NaCl, rather than 3 M KCl. The resistance of the filled micropipette was balanced in a bridge circuit, and the tip was then advanced across the cornea. Upon entering the anterior chamber of the eye, the IOP forces the much lower-conducting aqueous humor into the micropipette tip, displacing the original filling solution. The micropipette resistance was thereby increased, unbalancing the bridge circuit and triggering a bellows to provide a counter-pressure, restoring the position of the filling solution and returning the resistance to its initial value. Thus, the value of the counter-pressure equals the IOP. As in the past (Avila et al., supra, 2001), the stability of the records permitted continuous measurements for tens of minutes during the course of drug applications.
as §2, §3
In Table 1, an endpoint of 10 minutes was used for the invasive measurements in light of the above-discussed downward drift of the IOP, even under control conditions. Also the need for smaller, more frequent droplets are discussed above with regard to the non-invasive technique using the pneumotonometer. As above, with the non-invasive protocol, the IOP was stable for 30 minutes under control conditions.

Test [6] deals with C57 mouse intraocular pressure. As to the kind of experiment: C57 mouse intraocular pressure, invasive servo-null technique. Type of test: in vivo, C57 mice.

“Also recorded” adds a separate entry of the source.

On to `CNC(=O)[C@H]1O[C@@H](n2cnc3c(NCc4cccc(I)c4)ncnc32)[C@H](O)[C@@H]1O` [IB-MECA, N^6-(3-iodobenzyl)-adenosine-5′-N-methyluronamide], for which the “τ time constant of the shrinkage” value in test [1] (100 nM) was found to be 4.5 ± 0.6 min. Besides, the “v∞ steady-state cell volume” value in test [1] (100 nM, normalized to first time point as 100% isotonic volume) stood at 95.6±0.2%. The “effect of agonist on isosmotic volume of NPE cells” value in test [1] (agonist 100 nM) was “produced prompt shrinkage”. Besides, the Kd in test [1] (in the presence of gramicidin, read-out: apparent Kd for the IB-MECA-induced shrinkage) is 55 nM. Further, in test [2], the “effect on short-circuit current” value is “increased the short circuit current; also recorded: produced a significant increase in the short-circuit current”. Besides, the “increase in IOP” value in test [3] (140 nM) worked out at 4.6±1.6 mmHg; in test [3] (10-fold lower concentration than 140 nM), 2.2±0.5 mm Hg. In test [3] (droplet concentration 1400 nM), the “change in IOP” value is −1.2±1.9 mmHg.
With `CN(C)C(=O)[C@H]1O[C@@H](n2cnc3c(NCc4cccc(I)c4)nc(Cl)nc32)[C@H](O)[C@@H]1O` [MRS-3771], the “effect on mouse IOP measured non-invasively (in words)” value in test [4] (pneumotonometry, topical, MRS-3833 at 200 nM) is on record as “exerted no effect on IOP”. The “Δ(IOP) Pneumotonometer” value in test [4] (topical droplets 250 μM (2% DMSO), 30 min) is given as “+0.4 ± 0.6 mm Hg”. Moreover, the “effect on mouse IOP measured invasively (in words)” value in test [5] (servo-null, topical) is listed as “effective in lowering mouse IOP”. For the same molecule, the “effect on IOP in the mouse (in words)” value in test [5] (tested by the inventors, technique not given) is reported as “found to lower IOP in the mouse”. In addition, in test [5] (topical droplet 250 μM (2% DMSO), endpoint 10 min), the “Δ(IOP) Servo-Null” value was −3.0 ± 1.1 mm Hg. Further, in test [6] (Mean ± SEM of 6 experiments), the “IOP with MRS3771” value worked out at 13.2 ± 1.6 mm Hg and the “change in IOP” value is −3.3 ± 0.6 mm Hg. The “lowering of IOP of C57 mice” value in test [6] (topical, N=6) is on record as 3.3±0.6 mm Hg.
